Laboratory results reported in the C3SDB collision cross section collection.
“And” between values parts separate entries of the source, which are not always exact repeats. Identical values can stand only once.

Legend:
[1] = instrument: DT, single field
[2] = [M+NH4]+; instrument: DT; single field, calibrated with Agilent tune mix (Agilent)

| SMILES | collision cross section (N2) ([1]; [M+NH4]+) | collision cross section (N2) [2] | collision cross section (N2) ([1]; [M+Na]+) |
| --- | --- | --- | --- |
| CCCCCC/C=C\CCCCCCCC(=O)OC[C@H](CO)OC(=O)CCCCCCCCCCCCCCCCC [DG(34:1)] | 260.44 Å² and 262.5 Å² | 261.1 Å² | – |
| CCCCCCCCCCCCCCCC(=O)OC[C@@H](COC(=O)CCCCCCCCCCC)OC(=O)CCCCCCCCCCC [TG(40:0)] | – | 285 Å² | 282.67 Å² and 283.77 Å² |
| CCCCC/C=C\C/C=C\CCCCCCCCCC(=O)OC[C@@H](COC(=O)CCCCCCCCCCC)OC(=O)CCCCCCCCCCC [TG(44:2)] | 294.01 Å² and 295.78 Å² and 296.41 Å² | 292.9 Å² | 292.91 Å² and 295.34 Å² |
| CCCCCCCC/C=C\CCCCCCCC(=O)OC[C@@H](COC(=O)CCCCCCCCCCC)OC(=O)CCCCCCC/C=C\CCCCCCCC [TG(48:2)] | 307.53 Å² and 309.7 Å² and 313.52 Å² | 308.3 Å² | 306.66 Å² and 308.69 Å² |
| CCCCCCCCC/C=C\CCCCCCCC(=O)OC[C@@H](COC(=O)CCCCCCCCCCC)OC(=O)CCCCCCC/C=C\CCCCCCCCC [TG(50:2)] | – | 315.8 Å² | 313.04 Å² and 315.16 Å² |
| CCCCCCCCCCCCCCCCCCCC(=O)OC[C@@H](COC(=O)CCCCCCCCCCCC)OC(=O)CCCCCCCCCCCCCCCCCCC [TG(53:0)] | 331.32 Å² | – | – |
| CCCCCCCCC/C=C\CCCCCCCC(=O)OC[C@@H](COC(=O)CCCCCCCCCCCCCCC)OC(=O)CCCCCCC/C=C\CCCCCCCCC [TG(54:2)] | – | – | 324.71 Å² and 326.86 Å² |

Next, values leading:

| collision cross section (N2) ([1]; [M+NH4]+) | collision cross section (N2) [2] | collision cross section (N2) ([1]; [M+Na]+) | SMILES |
| --- | --- | --- | --- |
| 316.06 Å² | – | – | CCCCC/C=C\C/C=C\C/C=C\C/C=C\CCCC(=O)OC[C@@H](COC(=O)CCCCCCC/C=C\CCCCCC)OC(=O)CCCC/C=C\C/C=C\C/C=C\CCCCC [TG(54:8)] |
| 338.57 Å² | – | – | CCCCCCCCCCCCCCCCCCCCC(=O)OC[C@@H](COC(=O)CCCCCCCCCCCC)OC(=O)CCCCCCCCCCCCCCCCCCCC [TG(55:0)] |
| 334.96 Å² | – | – | CCCCC/C=C\C/C=C\CCCCCCCCCC(=O)OC[C@@H](COC(=O)CCCCCCC/C=C\C/C=C\CCCCC)OC(=O)CCCCCCC/C=C\CCCCCCCCC [TG(57:5)] |
| 331.34 Å² and 332.87 Å² | – | 331.1 Å² | CC/C=C\C/C=C\C/C=C\C/C=C\C/C=C\CCCCCC(=O)OC[C@@H](COC(=O)CCCCCCCCCCCCCCCCC)OC(=O)CCCCCCC/C=C\C/C=C\CCCCC [TG(58:7)] |
| 330.76 Å² and 329.67 Å² | – | – | CC/C=C\C/C=C\C/C=C\CCCCCCCC(=O)O[C@H](COC(=O)CCCCCCC/C=C\C/C=C\CCCCC)COC(=O)CCCCCCCC/C=C\C/C=C\C/C=C\CCCCC [TG(58:8)] |
| 347.61 Å² | – | – | CCCCCCCCC/C=C\CCCCCCCC(=O)OC[C@H](COC(=O)CCCCCCCCCCCCCCCCCCC)OC(=O)CCCCCCCCCCCCCCCCCCC [TG(59:1)] |
| 343.68 Å² and 345.92 Å² | – | – | CCCC/C=C\C/C=C\CCCCCCCC(=O)OC[C@H](COC(=O)CCCCCCCCCCCCCCCCCCCCC)OC(=O)CCCCCCCCCCCCCCCCCCC [TG(59:2)] |
| 338.34 Å² and 341.2 Å² | – | – | CCCCC/C=C\C/C=C\C/C=C\CCCCCCCCC(=O)OC[C@@H](COC(=O)CCCCCCC/C=C\CCCCCCC)OC(=O)CCCCCCCCC/C=C\CCCCCCCC [TG(59:5)] |
| 337.86 Å² | – | – | CC/C=C\C/C=C\C/C=C\C/C=C\C/C=C\C/C=C\CCC(=O)OC[C@@H](COC(=O)CCCCCCC/C=C\CCCCC)OC(=O)CCCCCCCCCCCCCCCCCCCCC [TG(59:7)] |
